Results taken from publication PMC3265452 (PLoS Neglected Tropical Diseases, 2012).
Counter-ions that a name gives are not always drawn.

target: AaDOP2 (Aedes aegypti, UniProt H6D5H2); test: AaDOP2 antagonist screen of the LOPAC1280 library (HEK-CRELuc-Aadop2 cells, luminescence); assay type: cell-based; conditions: not given
Sequence (H6D5H2 1-476): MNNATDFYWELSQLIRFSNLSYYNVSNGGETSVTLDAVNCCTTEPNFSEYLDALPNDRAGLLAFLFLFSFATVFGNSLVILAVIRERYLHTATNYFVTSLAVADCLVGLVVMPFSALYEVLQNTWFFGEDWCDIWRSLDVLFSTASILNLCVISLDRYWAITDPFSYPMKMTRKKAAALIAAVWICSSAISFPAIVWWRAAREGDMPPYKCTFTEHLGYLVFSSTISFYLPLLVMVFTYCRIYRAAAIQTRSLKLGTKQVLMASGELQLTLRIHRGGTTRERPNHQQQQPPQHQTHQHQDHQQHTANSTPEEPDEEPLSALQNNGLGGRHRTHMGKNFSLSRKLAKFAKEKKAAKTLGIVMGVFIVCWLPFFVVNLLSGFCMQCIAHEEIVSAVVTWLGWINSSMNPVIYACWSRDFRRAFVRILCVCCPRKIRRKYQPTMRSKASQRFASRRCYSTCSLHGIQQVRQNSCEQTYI

Going from `Oc1ccc2c3c1O[C@H]1c4[nH]c5ccccc5c4C[C@@]4(O)[C@@H](C2)N(CC2CC2)CC[C@]314` [Compound 878, Naltrindole hydrochloride] to `OCCN1CCN(CCCN2c3ccccc3Sc3ccc(Cl)cc32)CC1` [Compound 957, Perphenazine], the “Compound effect (percent receptor signaling in presence of test compound, relative lux units relative to the SCH23390 control)” value falls from 81 to 5.

Compared with `CCc1c(C(=O)OC)ncc2[nH]c3cc(OC)c(OC)cc3c12` [Compound 503, Methyl 6,7-dimethoxy-4-ethyl-beta-carboline-3-carboxylate], `COc1cc(/C=C(\C#N)C(=O)c2ccc(O)c(O)c2)cc(I)c1O` [Compound 1206, I-OMe-Tyrphostin AG 538] is higher in “Compound effect (percent receptor signaling in presence of test compound, relative lux units relative to the SCH23390 control)” value: 79 for the first, 96 for the second.

First: Nc1nc(O)c2ncn(COC(CO)CO)c2n1 [Compound 550, Ganciclovir]
Second: C=CCN1CC[C@@]2(C)c3cc(O)ccc3C[C@@H]1[C@@H]2C.Cl (racemic) [Compound 131, (±)-N-Allylnormetazocine hydrochloride]
The “Compound effect (percent receptor signaling in presence of test compound, relative lux units relative to the SCH23390 control)” value of the first is lower: 92 for the first, 105 for the second.

Going from `C[N+]1(C)CCOC(O)(c2ccc(-c3ccc(C4(O)C[N+](C)(C)CCO4)cc3)cc2)C1` (stereo not shown) [Compound 618, Hemicholinium-3] to `COC(=O)[C@H]1[C@H]2C[C@H]3c4[nH]c5ccccc5c4CCN3C[C@H]2CC[C@@H]1O` [Compound 1062, Rauwolscine hydrochloride], the “Compound effect (percent receptor signaling in presence of test compound, relative lux units relative to the SCH23390 control)” value falls from 106 to 87.

Going from `CC(=O)NCCc1c[nH]c2ccc(O)cc12` [Compound 29, N-Acetyl-5-hydroxytryptamine] to `COc1ccccc1OCC(O)CN1CCN(CC(=O)Nc2c(C)cccc2C)CC1` (stereo not shown) [Compound 1051, Ranolazine dihydrochloride], the “Compound effect (percent receptor signaling in presence of test compound, relative lux units relative to the SCH23390 control)” value falls from 110 to 100.

Compared with `O=C(c1cc(O)c(O)c([N+](=O)[O-])c1)c1ccccc1F` [Compound 1065, Ro 41-0960], `COC(=O)[C@H](NC(=O)c1cc(-c2ccccc2)nc2ccccc12)c1ccccc1` [Compound 591, SB 218795] is higher in “Compound effect (percent receptor signaling in presence of test compound, relative lux units relative to the SCH23390 control)” value: 88 for the first, 98 for the second.

First: Oc1cccc2c(O)nccc12 [Compound 674, 1,5-Isoquinolinediol]
Second: R-(-)-Deprenyl hydrochloride [Compound 813]
The “Compound effect (percent receptor signaling in presence of test compound, relative lux units relative to the SCH23390 control)” value of the first is lower: 92 for the first, 93 for the second.

Compared with `COc1cc(CCN)ccc1O.Cl` [Compound 768, 3-Methoxy-4-hydroxyphenethylamine hydrochloride], `Cc1cn([C@H]2C[C@H](N=[N+]=[N-])[C@@H](CO)O2)c(=O)[nH]c1=O` [Compound 34, 3'-Azido-3'-deoxythymidine] is lower in “Compound effect (percent receptor signaling in presence of test compound, relative lux units relative to the SCH23390 control)” value: 116 for the first, 114 for the second.

First: CCn1cc(C(=O)O)c(=O)c2ccc(Cc3ccccc3)nc21 [Compound 442, Amfonelic acid]
Second: C1COC(NC(C2CC2)C2CC2)=N1 [Compound 1071, Rilmenidine hemifumarate]
The “Compound effect (percent receptor signaling in presence of test compound, relative lux units relative to the SCH23390 control)” value of the first is lower: 96 for the first, 114 for the second.

First: C=CCN1CC[C@]23c4c5ccc(O)c4O[C@@H]2/C(=N/N=C2\CC[C@@]4(O)C6Cc7ccc(O)c8c7[C@@]4(CCN6CC=C)[C@@H]2O8)CC[C@@]3(O)C1C5.Cl.Cl [Compound 891, Naloxonazine dihydrochloride]
Second: CCCN(CCC)CCc1c[nH]c2ccc(C(N)=O)cc12.O=C(O)/C=C\C(=O)O [Compound 457, N,N-Dipropyl-5-carboxamidotryptamine maleate]
The “Compound effect (percent receptor signaling in presence of test compound, relative lux units relative to the SCH23390 control)” value of the first is lower: 86 for the first, 106 for the second.

First: COc1ccccc1N1CCN(CCCNc2c(C)c(=O)n(C)c(=O)n2C)CC1 [Compound 1240, Urapidil, 5-Methyl-]
Second: SKF 95282 dimaleate [Compound 1237]
The “Compound effect (percent receptor signaling in presence of test compound, relative lux units relative to the SCH23390 control)” value of the first is lower: 91 for the first, 96 for the second.

Compared with `COc1ccc2[nH]c(I)c(CCNC(C)=O)c2c1` [Compound 637, 2-Iodomelatonin], `O=[N+]([O-])c1cccc2cn[nH]c12` [Compound 868, 7-Nitroindazole] is lower in “Compound effect (percent receptor signaling in presence of test compound, relative lux units relative to the SCH23390 control)” value: 113 for the first, 78 for the second.

Going from `O=C(CCCN1CCC2(CC1)C(=O)NCN2c1ccccc1)c1ccc(F)cc1` [Compound 1107, Spiperone hydrochloride] to `CN(C(=O)Cc1ccc(Cl)c(Cl)c1)C(CN1CCCC1)c1cccc(OCC(=O)O)c1.Cl` (stereo not shown) [Compound 671, ICI 204,448 hydrochloride], the “Compound effect (percent receptor signaling in presence of test compound, relative lux units relative to the SCH23390 control)” value rises from 29 to 97.

First: C#CCN1C(C)=C(C(=O)OC)C(c2cccc([N+](=O)[O-])c2)C(C(=O)OCC)=C1C (stereo not shown) [Compound 741, MRS 1845]
Second: COC(=O)C1=C(C)NC(C)=C(C(=O)OC)C1c1ccccc1[N+](=O)[O-] [Compound 866, Nifedipine]
The “Compound effect (percent receptor signaling in presence of test compound, relative lux units relative to the SCH23390 control)” value of the first is higher: 101 for the first, 78 for the second.

First: O=C1NC(=O)C(c2ccccc2)(c2ccccc2)N1 [Compound 382, 5,5-Diphenylhydantoin]
Second: CNC(=O)Oc1ccc2c(c1)[C@]1(C)CCN(C)[C@@H]1N2C [Compound 497, (-)-Physostigmine]
The “Compound effect (percent receptor signaling in presence of test compound, relative lux units relative to the SCH23390 control)” value of the first is higher: 96 for the first, 93 for the second.

Going from `CC(C)Cn1c(=O)n(C)c(=O)c2[nH]cnc21` [Compound 649, 3-Isobutyl-1-methylxanthine] to `CC(=O)c1ccc(S(=O)(=O)NC(=O)NC2CCCCC2)cc1` [Compound 137, Acetohexamide], the “Compound effect (percent receptor signaling in presence of test compound, relative lux units relative to the SCH23390 control)” value falls from 129 to 115.

same assay, conditions: 10 µM compound, 300 nM dopamine, 2 hr; hit = compound effect <20

First: Cl.NCC#Cc1ccccc1 [Compound 1006, 3-Phenylpropargylamine hydrochloride]
Second: CC(C)=CCC/C(C)=C/CC/C(C)=C/CSc1ccccc1C(=O)O [Compound 532, Farnesylthiosalicylic acid]
The “Compound effect (percent receptor signaling in presence of test compound, relative lux units relative to the SCH23390 control)” value of the first is lower: 91% for the first, 120% for the second.

Going from `N/C(=N\C(=O)c1nc(Cl)c(N)nc1N)NCc1ccc(Cl)c(Cl)c1` [Compound 418, 3',4'-Dichlorobenzamil] to `NC(CCCP(=O)(O)O)C(=O)O` (racemic) [Compound 58, (±)-2-Amino-5-phosphonopentanoic acid], the “Compound effect (percent receptor signaling in presence of test compound, relative lux units relative to the SCH23390 control)” value rises from 73% to 89%.

same assay, conditions: read-out: % of the SCH23390 effect (percent inhibition of receptor response relative to the SCH23390 control)

`OCCN1CCN(CCCN2c3ccccc3Sc3ccc(Cl)cc32)CC1` [Compound 957, Perphenazine] gave an inhibition at 10 µM of 95%.
